Assay results published in patent US8163771B2, “11 β-HSD1 modulators” (Exelixis, Inc., priority 2008, dated 2012).

Each molecule was assayed against T1, recombinant human 11 β-HSD1 (Homo sapiens, UniProt P28845) (assay: 11 β-HSD1 SPA Assay (Scintillation Proximity Assay)).
T1 construct: made in house; host or cells: E. coli
Assay type: biochemical
Outline: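 Scintillation proximity read-out of cortisol formed from 40 nM [3H]cortisone by purified recombinant human enzyme (30-100 nM, E. coli) with 1 mM NADPH, pH7.4, 2 hours at room temperature; beads with cortisol antibody and glycyrrhetinic acid stop the reaction, read next day. IC50 derived from inhibition normalised to background and maximal wells.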

T1 sequence (P28845 whole entry): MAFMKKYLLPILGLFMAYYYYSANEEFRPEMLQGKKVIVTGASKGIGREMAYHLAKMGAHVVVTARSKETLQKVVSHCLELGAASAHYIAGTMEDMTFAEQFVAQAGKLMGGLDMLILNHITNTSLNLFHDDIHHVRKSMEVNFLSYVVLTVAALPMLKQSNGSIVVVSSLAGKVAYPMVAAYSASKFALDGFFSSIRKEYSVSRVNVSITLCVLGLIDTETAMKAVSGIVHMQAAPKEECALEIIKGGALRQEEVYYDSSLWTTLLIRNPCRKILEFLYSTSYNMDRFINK

`CC(C)(Oc1cc(Cl)c(F)cc1Cl)C(=O)N[C@H]1C[C@H]2CC[C@@H](C1)N2c1ccc(C(N)=O)cn1` [Example 99, 6-[3-endo-({2-[(2,5-dichloro-4-fluorophenyl)oxy]-2-methylpropanoyl}amino)-8-azabicyclo[3.2.1]oct-8-yl]pyridine-3-carboxamide] and `CC(C)(Oc1ccc(Cl)cc1C(F)(F)F)C(=O)N[C@H]1C[C@H]2CC[C@@H](C1)N2c1ccc(C(N)=O)cn1` [Example 169, 6-{3-endo-[(2-{[4-chloro-2-(trifluoromethyl)phenyl]oxy}-2-methylpropanoyl)amino]-8-azabicyclo[3.2.1]oct-8-yl}pyridine-3-carboxamide] cannot be ordered by IC50: under 200 nM for the first, under 200 nM for the second.

`CC(C)(Oc1ncc(F)cc1C(F)F)C(=O)N[C@H]1C[C@H]2CC[C@@H](C1)N2c1ccc(C(=O)NCC(F)F)cn1` [Example 440, N-(2,2-difluoroethyl)-6-{3-endo-[(2-{[3-(difluoromethyl)-5-fluoropyridin-2-yl]oxy}-2-methylpropanoyl)amino]-8-azabicyclo[3.2.1]oct-8-yl}pyridine-3-carboxamide] and `CC(C)(Oc1ccc(F)cc1Cl)C(=O)N[C@H]1C[C@H]2CC[C@@H](C1)N2c1ccc(C(=O)NCC(F)F)cn1` [Example 371, 6-(3-endo-{[2-(2-chloro-4-fluorophenoxy)-2-methylpropanoyl]amino}-8-azabicyclo[3.2.1]oct-8-yl)-N-(2,2-difluoroethyl)pyridine-3-carboxamide] cannot be ordered by IC50: under 200 nM for the first, under 200 nM for the second.

`CC(C)(Oc1cc(OCCO)c(Cl)cc1Cl)C(=O)N[C@H]1C[C@H]2CC[C@@H](C1)N2c1ccc(C(=O)NCC(F)F)cn1` [Example 402, 6-(3-endo-(2-(2,4-dichloro-5-(2-hydroxyethoxy)phenoxy)-2-methylpropanamido)-8-azabicyclo[3.2.1]octan-8-yl)-N-(2,2-difluoroethyl)nicotinamide] and `CC(C)(Oc1ccc(Cl)cc1Cl)C(=O)NC1CC2CCC(C1)N2c1ccc(C(=O)NC(CO)C(F)(F)F)cn1` (stereo not drawn) [Example 463, 6-(3-endo-{[2-(2,4-dichlorophenoxy)-2-methylpropanoyl]amino}-8-azabicyclo[3.2.1]oct-8-yl)-N-(1,1,1-trifluoro-3-hydroxypropan-2-yl)pyridine-3-carboxamide] cannot be ordered by IC50: under 200 nM for the first, under 200 nM for the second.

`C[C@H](NC(=O)c1ccc(N2C3CCC2CC(NC(=O)C(C)(C)Oc2ccc(Cl)cc2)C3)nc1)C(F)(F)F` (stereo partly drawn) [Example 420, 6-(3-endo-{[2-(4-chlorophenoxy)-2-methylpropanoyl]amino}-8-azabicyclo[3.2.1]oct-8-yl)-N-[(2S)-1,1,1-trifluoropropan-2-yl]pyridine-3-carboxamide] and `C[C@@H](NC(=O)c1ccc(N2C3CCC2CC(NC(=O)C(C)(C)Oc2ccc(Cl)cc2C(F)F)C3)nc1)C(F)(F)F` (stereo partly drawn) [Example 411, 6-(3-endo-(2-(4-chloro-2-(difluoromethyl)phenoxy)-2-methylpropanamido)-8-azabicyclo[3.2.1]octan-8-yl)-N-((R)-1,1,1-trifluoropropan-2-yl)nicotinamide] cannot be ordered by IC50: under 2000 nM for the first, under 200 nM for the second.

`CC(C)(Oc1ncc(Cl)cc1F)C(=O)N[C@H]1C[C@H]2CC[C@@H](C1)N2c1ccc(S(C)(=O)=O)cc1` [Example 195, 2-[(5-chloro-3-fluoropyridin-2-yl)oxy]-2-methyl-N-{8-[4-(methylsulfonyl)phenyl]-8-azabicyclo[3.2.1]oct-3-endo-yl}propanamide] and `CC(C)(Oc1c(Cl)cc(F)cc1C(F)(F)F)C(=O)N[C@H]1C[C@H]2CC[C@@H](C1)N2c1ccc(S(C)(=O)=O)cc1` [Example 252, 2-{[2-chloro-4-fluoro-6-(trifiuoromethyl)phenyl]oxy}-2-methyl-N-{8-[4-(methylsulfonyl)phenyl]-8-azabicyclo[3.2.1]oct-3-endo-yl}propanamide] cannot be ordered by IC50: under 2000 nM for the first, under 200 nM for the second.

`CC(=O)Nc1ccc(N2[C@@H]3CC[C@H]2C[C@@H](NC(=O)C(C)(C)Oc2ccc(Cl)cc2Cl)C3)cc1` [Example 115, N-{8-[4-(acetylamino)phenyl]-8-azabicyclo[3.2.1]oct-3-endo-yl}-2-[(2,4-dichlorophenyl)oxy]-2-methylpropanamide] and `CC(C)(Oc1ccc(Cl)cc1Cl)C(=O)N[C@H]1C[C@H]2CC[C@@H](C1)N2c1ccc(N)cn1` [Example 88, N-[8-(5-aminopyridin-2-yl)-8-azabicyclo[3.2.1]oct-3-endo-yl]-2-[(2,4-dichlorophenyl)oxy]-2-methylpropanamide] cannot be ordered by IC50: under 200 nM for the first, under 200 nM for the second.

`CC(C)(Oc1ccc(Cl)cc1Cl)C(=O)N[C@H]1C[C@H]2CC[C@@H](C1)N2c1ccc(C(=O)NCC(F)(F)F)cn1` [Example 65, 6-[3-endo-({2-[(2,4-dichlorophenyl)oxy]-2-methylpropanoyl}amino)-8-azabicyclo[3.2.1]oct-8-yl]-N-(2,2,2-trifluoroethyl)pyridine-3-carboxamide] and `CC(C)(Oc1ccc(Cl)cc1S(C)(=O)=O)C(=O)N[C@H]1C[C@H]2CC[C@@H](C1)N2c1ccc(C(=O)NCC(F)(F)F)cn1` [Example 321, 6-{3-endo-[(2-{[4-chloro-2-(methylsulfonyl)phenyl]oxy}-2-methylpropanoyl)amino]-8-azabicyclo[3.2.1]oct-8-yl}-N-(2,2,2-trifluoroethyl)pyridine-3-carboxamide] cannot be ordered by IC50: under 200 nM for the first, under 200 nM for the second.

`CC(C)(Oc1ccc2ccccc2c1Cl)C(=O)N[C@H]1C[C@H]2CC[C@@H](C1)N2c1ccc(C(=O)NCC(F)(F)F)cn1` [Example 348, 6-[3-endo-({2-[(1-chloronaphthalen-2-yl)oxy]-2-methylpropanoyl}amino)-8-azabicyclo[3.2.1]oct-8-yl]-N-(2,2,2-trifluoroethyl)pyridine-3-carboxamide] and `CC(C)(Oc1ccc2ccccc2n1)C(=O)N[C@H]1C[C@H]2CC[C@@H](C1)N2c1ccc(C(N)=O)cn1` [Example 310, 6-(3-endo-{[2-methyl-2-(quinolin-2-yloxy)propanoyl]amino}-8-azabicyclo[3.2.1]oct-8-yl)pyridine-3-carboxamide] cannot be ordered by IC50: under 200 nM for the first, under 200 nM for the second.

`CC(C)(Oc1cc(F)ccc1Cl)C(=O)N[C@H]1C[C@H]2CC[C@@H](C1)N2c1ccc(C(=O)NC2CC2)cn1` [Example 69, 6-[3-endo-({2-[(2-chloro-5-fluorophenyl)oxy]-2-methylpropanoyl}amino)-8-azabicyclo[3.2.1]oct-8-yl]-N-cyclopropylpyridine-3-carboxamide] and `CC(C)(Oc1ccc(Cl)cc1Cl)C(=O)N[C@H]1C[C@H]2CC[C@@H](C1)N2c1ccc(C(=O)NC2CCOCC2)cn1` [Example 378, 6-(3-endo-{[2-(2,4-dichlorophenoxy)-2-methylpropanoyl]amino}-8-azabicyclo[3.2.1]oct-8-yl)-N-(tetrahydro-2h-pyran-4-yl)pyridine-3-carboxamide] cannot be ordered by IC50: under 200 nM for the first, under 200 nM for the second.

`CC(C)(Oc1ccc(Cl)cc1Cl)C(=O)N[C@H]1C[C@H]2CC[C@@H](C1)N2Cc1ccc(C(N)=O)cn1` [Example 323, 6-{[3-endo-({2-[(2,4-dichlorophenyl)oxy]-2-methylpropanoyl}amino)-8-azabicyclo[3.2.1]oct-8-yl]methyl}pyridine-3-carboxamide] and `CC(C)(Oc1ccc(Cl)cc1Cl)C(=O)N[C@H]1C[C@H]2CC[C@@H](C1)N2c1ccc(C(=O)NC2COC2)cn1` [Example 317, 6-[3-endo-({2-[(2,4-dichlorophenyl)oxy]-2-methylpropanoyl}amino)-8-azabicyclo[3.2.1]oct-8-yl]-N-oxetan-3-ylpyridine-3-carboxamide] cannot be ordered by IC50: under 2000 nM for the first, under 200 nM for the second.

`CC(C)(Oc1ccc(C(F)(F)F)cc1)C(=O)N[C@H]1C[C@H]2CC[C@@H](C1)N2c1ccc(C(=O)NC2CC2)cn1` [Example 37, N-cyclopropyl-6-{3-endo-[(2-methyl-2-{[4-(trifluoromethyl)phenyl]oxy}propanoyl)amino]-8-azabicyclo[3.2.1]oct-8-yl}pyridine-3-carboxamide] and `Cc1cc(C(=O)NC2CC2)cnc1N1[C@@H]2CC[C@H]1C[C@@H](NC(=O)C(C)(C)Oc1ccc(Cl)cc1)C2` [Example 40, 6-[3-endo-({2-[(4-chlorophenyl)oxy]-2-methylpropanoyl}amino)-8-azabicyclo[3.2.1]oct-8-yl]-N-cyclopropyl-5-methylpyridine-3-carboxamide] cannot be ordered by IC50: under 200 nM for the first, under 200 nM for the second.

`CC(C)(Oc1ccc(F)cc1C(F)(F)F)C(=O)N[C@H]1C[C@H]2CC[C@@H](C1)N2c1ccc(S(C)(=O)=O)cc1` [Example 250, 2-{[4-fluoro-2-(trifluoromethyl)phenyl]oxy}-2-methyl-N-{8-[4-(methylsulfonyl)phenyl]-8-azabicyclo[3.2.1]oct-3-endo-yl}propanamide] and `CC(C)(Oc1cc(F)ccc1C(F)(F)F)C(=O)N[C@H]1C[C@H]2CC[C@@H](C1)N2c1ccc(C(N)=O)cn1` [Example 309, 6-{3-endo-[(2-{[5-fluoro-2-(trifluoromethyl)phenyl]oxy}-2-methylpropanoyl)amino]-8-azabicyclo[3.2.1]oct-8-yl}pyridine-3-carboxamide] cannot be ordered by IC50: under 200 nM for the first, under 200 nM for the second.

`C[C@H](NC(=O)c1ccc(N2C3CCC2CC(NC(=O)C(C)(C)Oc2ncc(Cl)cc2Cl)C3)nc1)C(F)(F)F` (stereo partly drawn) [Example 417, 6-[3-endo-({2-[(3,5-dichloropyridin-2-yl)oxy]-2-methylpropanoyl}amino)-8-azabicyclo[3.2.1]oct-8-yl]-N-[(2S)-1,1,1-trifluoropropan-2-yl]pyridine-3-carboxamide] and `CC(C)(C(=O)N[C@H]1C[C@H]2CC[C@@H](C1)N2c1ccc(C(N)=O)cn1)S(=O)(=O)c1ccc(Cl)cc1Cl` [Example 274, 6-[3-endo-({2-[(2,4-dichlorophenyl)sulfonyl]-2-methylpropanoyl}amino)-8-azabicyclo[3.2.1]oct-8-yl]pyridine-3-carboxamide] cannot be ordered by IC50: under 200 nM for the first, under 200 nM for the second.

Molecule `CC(C)(Oc1cc(-c2ccccc2)ccc1Cl)C(=O)N[C@H]1C[C@H]2CC[C@@H](C1)N2c1ccc(C(N)=O)cn1` [Example 344, 6-[3-endo-({2-[(4-chlorobiphenyl-3-yl)oxy]-2-methylpropanoyl}amino)-8-azabicyclo[3.2.1]oct-8-yl]pyridine-3-carboxamide] has an IC50 of under 200 nM.
